Assay results reported in publication PMC3509222 (Molecular Microbiology, 2012).

Target: T1, full-length SgmT (His6-SgmT) (Myxococcus xanthus, UniProt Q1D3G7)
T1 sequence (Q1D3G7 1-836): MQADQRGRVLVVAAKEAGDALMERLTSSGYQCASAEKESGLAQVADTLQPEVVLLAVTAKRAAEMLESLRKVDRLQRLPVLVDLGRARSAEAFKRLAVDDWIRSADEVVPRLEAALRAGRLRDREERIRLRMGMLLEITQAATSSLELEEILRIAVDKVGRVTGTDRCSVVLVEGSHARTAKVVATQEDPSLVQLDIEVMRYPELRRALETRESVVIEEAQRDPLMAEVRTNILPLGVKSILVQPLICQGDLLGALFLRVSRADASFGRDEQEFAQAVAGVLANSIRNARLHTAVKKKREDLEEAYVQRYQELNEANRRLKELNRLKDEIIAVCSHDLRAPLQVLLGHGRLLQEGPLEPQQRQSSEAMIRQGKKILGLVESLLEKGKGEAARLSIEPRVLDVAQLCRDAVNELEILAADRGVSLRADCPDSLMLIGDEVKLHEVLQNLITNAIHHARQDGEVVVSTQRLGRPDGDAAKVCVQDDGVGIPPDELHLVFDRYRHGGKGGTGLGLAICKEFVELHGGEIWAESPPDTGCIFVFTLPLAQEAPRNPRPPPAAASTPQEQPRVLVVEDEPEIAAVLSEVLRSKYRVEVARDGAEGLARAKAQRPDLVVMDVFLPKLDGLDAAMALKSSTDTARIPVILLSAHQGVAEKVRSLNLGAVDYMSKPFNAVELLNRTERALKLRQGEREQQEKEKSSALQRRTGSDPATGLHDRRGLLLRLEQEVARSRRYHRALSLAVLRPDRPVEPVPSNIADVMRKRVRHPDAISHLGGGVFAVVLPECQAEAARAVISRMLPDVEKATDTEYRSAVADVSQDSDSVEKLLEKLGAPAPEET
Conditions: labelled compound; 1.0 mM ATP, 10 mM MgCl2, Tris pH 8.0, 30°C, 30 min

Nc1ncnc2c1ncn2[C@@H]1O[C@H](COP(=O)(O)OP(=O)(O)OP(=O)(O)O)[C@@H](O)[C@H]1O [[γ-^32P]-ATP]
autophosphorylation, SDS-PAGE and phosphorimaging: Autophosphorylation of full-length SgmT and phosphotransfer to DigR
